{
  "source": "ChEMBL document CHEMBL1150681",
  "about": "“New acetylenic acids from the marine sponge Stelletta species” (2003)",
  "assay_type_in_all_cases": "functional",
  "details_in_all_cases": "read-out: ED50 (the source's name)",
  "key": {"A549": {"tested_on": "A549", "test": "Cytotoxicity against human A549 cells"}, "HCT-15": {"tested_on": "HCT-15", "test": "Cytotoxicity against human HCT15 cells"}, "XF498": {"tested_on": "XF498", "test": "Cytotoxicity against human XF498 cells"}, "SK-OV-3": {"tested_on": "SK-OV-3", "test": "Cytotoxicity against human SKOV3 cells"}, "SK-MEL-2": {"tested_on": "SK-MEL-2", "test": "Cytotoxicity against human SK-MEL-2 cells"}},
  "data": [
    {"smiles": "COc1cccc2c1C(=O)c1c(O)c3c(c(O)c1C2=O)C[C@@](O)(C(=O)CO)C[C@@H]3O[C@H]1C[C@H](N)[C@H](O)[C@H](C)O1", "note": "[DOXORUBICIN]", "values": [
      {"measurement": "EC50", "setting": "A549", "result": 0.03, "unit": "µg/mL"},
      {"measurement": "EC50", "setting": "HCT-15", "result": 0.07, "unit": "µg/mL"},
      {"measurement": "EC50", "setting": "XF498", "result": 0.15, "unit": "µg/mL"},
      {"measurement": "EC50", "setting": "SK-OV-3", "result": 0.15, "unit": "µg/mL"},
      {"measurement": "EC50", "setting": "SK-MEL-2", "result": 0.03, "unit": "µg/mL"}
    ]}
  ]
}
